Laboratory results from paper PMC4377892, “Gastroprotective Efficacy and Safety Evaluation of Scoparone Derivatives on Experimentally Induced Gastric Lesions in Rodents” (Nutrients, 2015).

Assays:
CYP3A4 = CYP3A4 (Homo sapiens, UniProt P08684); assay: in vitro; details: recombinant enzyme
Description: (§1) The inhibition assays for human cytochrome P450 (CYP) enzyme activities were performed in multiwall plates using CYP2C9 and CYP3A4 screening kits (Invitrogen Co., Carlsbad, CA, USA) according to the manufacturer’s instruction. The test compounds Ketoconazole (a positive inhibition control for CYP3A4) or Sulfaphenazole (a positive inhibition control for CYP2C9) were mixed with each master pre-mix comprising CYP2C9 or CYP3A4 BACULOSOMES® reagent and the regeneration system, which contained glucose-6-phosphate and glucose-6-phosphate dehydrogenase. The mixture was incubated at room temperature for 20 min. Following incubation, a CYP enzyme-specific substrate (Vivid BOMCC) and NADP^+ were added and the mixture was incubated at room temperature for 30 min. The reaction was stopped by the addition of a Stop Reagent (CYP450 isozyme specific inhibitors). CYP activity was evaluated by measuring the fluorescence of the fluorescent metabolite generated from each CYP enzyme-specific substrate. The fluorescence was measured using a fluorescent plate reader at 409 nm (excitation) and 460 nm (emission). All experiments were performed in duplicate, and the results are expressed as percent inhibition.

CYP2C9 = CYP2C9 (Homo sapiens, UniProt P11712); assay: in vitro
Description: as §1

[1] = system: HCl/ethanol-induced gastric ulcers; assay: HCl/ethanol-induced gastritis in rats; format: in vivo, Sprague-Dawley (S.D.) rats; details: HCl/ethanol-induced GU; for ED50: Rattus norvegicus, oral, dose-response, rats, read-out: ED50 (50% protection against GU)
Description: The male S.D. rats were fasted for 24 h prior to oral dosing with the normal saline (vehicle), rebamipide (a positive control), or test compounds (Figure 1) at a range of doses, which are described in the results. One hour after the treatments, all animals orally received 0.5 mL of a mixture of 0.15 M HCl and 60% ethanol solution. Animals were sacrificed by cervical dislocation 3 h after the administration of HCl/ethanol solution, the stomach was removed and fixed in 4% formalin solution for 1 h, opened along the greater curvature, and photographed using a camera attached to a dissection microscope. Total area (mm^2) of mucosal erosive lesion was measured using Photoshop CS4 Extended (Adobe, San Jose, CA, USA) software. The percentage of ulcer inhibition by test compounds was calculated by the following formula: % protection of ulceration = ((%Uarea vehicle treated ulcer control–%Uarea compound treated)/%Uarea vehicle treated ulcer control) × 100(1) where %Uarea is the percent ulcer area of the total gastric mucosa area. ED50 values (50% protection against GU) were calculated from the dose-response curves of logarithmic plots of each test compound.

[2] = system: indomethacin-induced gastric ulcers; assay: Indomethacin-induced gastritis in rats; format: in vivo, Sprague-Dawley (S.D.) rats; details: for gastroprotective activity (in words): oral 40 mg/kg, indomethacin-induced GU, rats; for GU reversal: stated for both HCl/ethanol- and indomethacin-induced GU
Description: The male S.D. rats were fasted for 24 h prior to oral dosing with normal saline, rebamipide, or test compounds at a dose of 40 mg/kg body weight. One hour after treatment, all animals orally received 0.5 mL indomethacin solution (80 mg/kg body weight, suspended in 5% sodium bicarbonate). Animals were sacrificed by cervical dislocation 6 h after the administration of indomethacin solution, the stomach was removed and fixed in 2% formalin solution for 30 min, opened along the greater curvature, and photographed using a camera attached to a dissection microscope. Total area (mm^2) of mucosal erosive lesion was measured and the % protection was calculated as described above.

adherent gastric mucus = assay: Measurement of adherent gastric mucus (alcian blue) in HCl/ethanol-treated rats; format: in vivo, Sprague-Dawley (S.D.) rats; details: 20 mg/kg body weight oral, 1 h before HCl/ethanol, mean ± SEM n = 6
Description: The male S.D. rats were fasted for 24 h prior to oral dosing with normal saline, rebamipide, or test compounds at a dose of 20 mg/kg body weight. One hour after the treatments, all animals orally received 0.5 mL of a mixture of 0.15 M HCl and 60% ethanol solution. Animals were sacrificed by cervical dislocation 3 h after the administration of HCl/ethanol solution, the stomach was removed, and parts of the stomach mucosa were rinsed with ice-cold 0.25 M sucrose. Measurement of adherent gastric mucosal mucus was assayed using alcian blue, a dye which stains acid mucosubstances, as previously described. In brief, a 100 mm^2 portion of the glandular region of the stomach was excised with a scalpel, and soaked in 0.1% alcian blue dissolved in 0.16 M of sucrose buffered with 0.05 M sodium acetate (pH 5.8) for 2 h. The unbound dye was removed using two successive washes with 0.25 M sucrose. The dye complex with mucus was extracted using 30% docusate sodium salt for 2 h. After centrifugation at 2600× g for 10 min, the optical density of the alcian blue solution was measured at 620 nm and calculated using the calibration curve. The adherent gastric mucosal mucus was expressed as the amount of the alcian blue (μg/g tissue).

ICR mice = assay: Acute oral toxicity in mice; format: in vivo; details: for Mortality / Relative Organ Weight, Heart / Relative Organ Weight, Kidney / Relative Organ Weight, Liver / Relative Organ Weight, Lung / Relative Organ Weight, Spleen / alteration in body weight vs vehicle control (in words): single oral 1000 mg/kg, 14 days; for Mortality: deaths/animals; for Relative Organ Weight, Heart / Relative Organ Weight, Kidney / Relative Organ Weight, Liver / Relative Organ Weight, Lung / Relative Organ Weight, Spleen: mean ± SEM n = 10; for LD50: oral, Probit method; for alteration in body weight vs vehicle control (in words): male and female ICR mice; for acute toxicity (in words): single oral administration 1000 mg/kg body weight, ICR mice
Description: Acute toxicity studies were performed both in male and female ICR mice as described previously. Vehicle control and test compound treated groups consisted of 10 animals each. Mice were acclimatized for 7 days before experimentation. Before dosing with test compounds, animals were fasted for 24 h with access to adequate drinking water in cases with wire mesh bottoms, to prevent coprophagy. The treated group received test compounds, and the control group received saline by gavage at a dose of 1000 mg/kg body weight. […] The mortality, body measurements, and behavior were assessed and recorded daily for 14 days after treatment. The macroscopic analyses and weight of vital organs, such as the liver, kidney, spleen, lung, and heart were compared between the animals treated with test compounds and vehicle.

[3] = single oral dose 40 mg/kg body weight, S.D. rats

Chain of CYP2C9 (P11712 whole entry): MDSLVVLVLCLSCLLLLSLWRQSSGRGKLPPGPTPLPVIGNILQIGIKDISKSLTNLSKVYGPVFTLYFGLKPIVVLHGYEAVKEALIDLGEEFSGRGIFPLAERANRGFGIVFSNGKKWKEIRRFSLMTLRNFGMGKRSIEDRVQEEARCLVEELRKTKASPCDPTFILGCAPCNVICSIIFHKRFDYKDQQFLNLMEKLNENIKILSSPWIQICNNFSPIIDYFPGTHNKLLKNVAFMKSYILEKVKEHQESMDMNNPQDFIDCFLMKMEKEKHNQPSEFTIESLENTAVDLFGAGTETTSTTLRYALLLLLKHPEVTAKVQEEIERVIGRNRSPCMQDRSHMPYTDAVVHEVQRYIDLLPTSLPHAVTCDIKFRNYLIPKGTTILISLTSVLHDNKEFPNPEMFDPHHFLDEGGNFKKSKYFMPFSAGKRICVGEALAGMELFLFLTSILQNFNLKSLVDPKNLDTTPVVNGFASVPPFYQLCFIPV
Chain of CYP3A4 (P08684 whole entry): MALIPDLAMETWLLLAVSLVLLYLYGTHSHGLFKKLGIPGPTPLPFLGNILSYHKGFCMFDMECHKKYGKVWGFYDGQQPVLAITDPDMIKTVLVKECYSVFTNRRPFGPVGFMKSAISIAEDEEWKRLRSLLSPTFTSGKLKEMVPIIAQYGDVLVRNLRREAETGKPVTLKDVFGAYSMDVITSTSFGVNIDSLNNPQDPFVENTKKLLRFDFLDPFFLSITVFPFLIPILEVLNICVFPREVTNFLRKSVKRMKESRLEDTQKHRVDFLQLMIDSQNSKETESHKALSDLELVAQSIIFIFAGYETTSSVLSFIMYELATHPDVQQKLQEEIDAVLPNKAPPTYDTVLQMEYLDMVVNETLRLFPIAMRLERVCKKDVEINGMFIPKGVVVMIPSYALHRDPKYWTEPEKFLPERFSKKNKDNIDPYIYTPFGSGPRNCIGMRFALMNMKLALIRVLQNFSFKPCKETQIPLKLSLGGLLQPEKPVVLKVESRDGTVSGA

## COc1cc2ccc(=O)oc2cc1OC [Compound 1, 6,7-dimethoxycoumarin]
CYP3A4
  inhibition at 30 min, 10 µM: 32.7%
CYP2C9; recombinant enzyme
  inhibition at 30 min, 10 µM: 0%
[1]
  ED50: 4.21 mg/kg
[1]; [3]
  gastroprotective activity (in words): significantly protected
[2]
  gastroprotective activity (in words): effectively inhibited

## COc1cc2oc(=O)ccc2c(OC)c1OC [Compound 2, 5,6,7-Trimethoxycoumarin]
Adherent gastric mucus
  Adherent Mucus: 1424 ± 83 μg alcian blue/g tissue
CYP3A4
  inhibition at 30 min, 10 µM: 19.1%
CYP2C9; recombinant CYP2C9 BACULOSOMES, probe Vivid BOMCC
  inhibition at 30 min, 10 µM: 0%
[1]
  ED50: 3.94 mg/kg
[1]; [3]
  protection rate (gastric lesion): 90.0%
[2]
  gastroprotective activity (in words): effectively inhibited
  GU reversal: over 90%
ICR mice; female mice
  Mortality: 0/10
  Relative Organ Weight, Heart: 0.47 ± 0.05 % body weight
  Relative Organ Weight, Kidney: 1.22 ± 0.09 % body weight
  Relative Organ Weight, Liver: 4.21 ± 0.64 % body weight
  Relative Organ Weight, Lung: 0.69 ± 0.07 % body weight
  Relative Organ Weight, Spleen: 0.45 ± 0.09 % body weight
ICR mice; male mice
  Mortality: 0/10
  Relative Organ Weight, Heart: 0.46 ± 0.07 % body weight
  Relative Organ Weight, Kidney: 1.56 ± 0.05 % body weight
  Relative Organ Weight, Liver: 5.84 ± 0.23 % body weight
  Relative Organ Weight, Lung: 0.68 ± 0.05 % body weight
  Relative Organ Weight, Spleen: 0.36 ± 0.08 % body weight
ICR mice; female ICR mice
  LD50: 3857 mg/kg body weight
ICR mice; male ICR mice
  LD50: 3812 mg/kg body weight
ICR mice
  alteration in body weight vs vehicle control (in words): no significant alteration
  acute toxicity (in words): no toxicity

## COc1cc2ccc(=O)oc2c(OC)c1OC [Compound 3, 6,7,8-trimethoxycoumarin]
Adherent gastric mucus
  Adherent Mucus: 1876 ± 51 μg alcian blue/g tissue
CYP3A4
  inhibition at 30 min, 10 µM: 15.8%
CYP2C9; recombinant enzyme
  inhibition at 30 min, 10 µM: 0%
[1]
  ED50: 2.93 mg/kg
[1]; [3]
  protection rate (gastric lesion): 95.8%
[2]
  gastroprotective activity (in words): effectively inhibited
  GU reversal: over 90%
ICR mice; female mice
  Mortality: 0/10
  Relative Organ Weight, Heart: 0.54 ± 0.05 % body weight
  Relative Organ Weight, Kidney: 1.34 ± 0.05 % body weight
  Relative Organ Weight, Liver: 6.86 ± 0.78 % body weight
  Relative Organ Weight, Lung: 0.79 ± 0.06 % body weight
  Relative Organ Weight, Spleen: 0.48 ± 0.10 % body weight
ICR mice; male mice
  Mortality: 0/10
  Relative Organ Weight, Heart: 0.50 ± 0.02 % body weight
  Relative Organ Weight, Kidney: 1.58 ± 0.06 % body weight
  Relative Organ Weight, Liver: 4.92 ± 0.24 % body weight
  Relative Organ Weight, Lung: 0.69 ± 0.06 % body weight
  Relative Organ Weight, Spleen: 0.40 ± 0.07 % body weight
ICR mice; female ICR mice
  LD50: 3500 mg/kg body weight
ICR mice; male ICR mice
  LD50: 2111 mg/kg body weight
ICR mice
  alteration in body weight vs vehicle control (in words): no significant alteration
  acute toxicity (in words): no toxicity

## COc1cc2ccc(=O)oc2c2c1OCO2 [Compound 4, 6-methoxy-7,8-methylenedioxycoumarin]
other
  melting point: 220 to 221 °C
[1]; [3]
  protection rate (gastric lesion): 93.1%
[2]
  gastroprotective activity (in words): equipotent gastroprotective activity that of rebamipide

## COc1cc2ccc(=O)oc2c2c1OC(OC)O2 (stereo not shown) [Compound 5, 6-Methoxy-7,8-(1-methoxy)methylenedioxycoumarin]
other
  melting point: 202 to 203 °C

## O=c1ccc2cc3c(cc2o1)OCO3 [Compound 6, 6,7-Methylenedioxycomarin]
other
  melting point: 230 to 231 °C

## COC1Oc2cc3ccc(=O)oc3cc2O1 (stereo not shown) [Compound 7, 6,7-(1-Methoxy)methylenedioxycoumarin]
other
  melting point: 205 to 206 °C

## CC(=O)N1CCN(c2ccc(OCC3COC(Cn4ccnc4)(c4ccc(Cl)cc4Cl)O3)cc2)CC1 (stereo not shown) [Ketoconazole, reference compound]
CYP3A4
  inhibition at 30 min, 20 µM: 97.5%
CYP2C9; recombinant enzyme
  inhibition at 30 min, 20 µM: 0%

## O=C(NC(Cc1cc(=O)[nH]c2ccccc12)C(=O)O)c1ccc(Cl)cc1 (stereo not shown) [Rebamipide, reference compound]
Adherent gastric mucus
  Adherent Mucus: 1584 ± 80 μg alcian blue/g tissue
[1]
  ED50: 9.53 mg/kg
[1]; [3]
  protection rate (gastric lesion): 57.8%

## Nc1ccc(S(=O)(=O)Nc2ccnn2-c2ccccc2)cc1 [Sulfaphenazole, reference compound]
CYP3A4
  inhibition at 30 min, 20 µM: 0%
CYP2C9; recombinant enzyme
  inhibition at 30 min, 20 µM: 93.4%
